According to patent publication US7183274B2, “Piperidine-2,6-diones heterocyclically substituted in the 3-position” (Gruenenthal GmbH, priority 2001, dated 2007):
In brackets after ≈: the same amount, converted by molar mass.

Assays:
[1] = system: IL-12 production of LPS-activated monocytes; assay: Inhibition of IL-12 production of LPS-activated human monocytes (ELISA of culture supernatant); type: cell-based; details: 20 μg/ml LPS from E. coli, 24 hours; for IC50: Monocyte
Procedure: (§1) Stimulation of human monocytes with lipopolysaccharide for the secretion of IL-10 and IL-12:
(§2) Human monocytes were isolated from peripheral blood mononuclear cells (PBMC) that had been obtained by means of a ficoll density gradient centrifugation from heparinized full blood. For this purpose the PBMC were incubated with a monoclonal antibody that is directed against the monocyte-specific surface molecule CD14 and on which are coupled superparamagnetic microbeads (Miltenyi Biotech, Bergisch Gladbach). For the positive selection of the marked monocytes from the cell mixture of the PBMC, the total cell suspension was added to a column with ferromagnetic carrier matrix and this was placed in a magnetic field. In this way the cells that were loaded with microbeads were bound to the carrier matrix while unmarked cells passed through the column and were discarded. After removing the matrix from the magnetic field the antibody-loaded cells were eluted by rinsing the now demagnetized column with buffer. The purity of the CD14-positive monocyte population obtained in this way is about 95–98%. These monocytes were incubated for 1 hour at 37° C. and 5% CO2 in a density of 10^6 cells/ml culture medium (RPMI, supplemented with 10% fetal calf serum) with the test substances dissolved in DMSO. 20 μg/ml LPS from E. coli were then added. After 24 hours cell-free culture supernatants were taken and tested for their content of IL-10 as well as IL-12.
(§3) The concentration of IL-12 and IL-10 in the cell culture supernatants was determined by means of sandwich ELISAs using two anti-IL-12 and IL-10 monoclonal antibodies (Biosource Europe, Fleurus, Belgium). A reference standard curve with human IL-10 and IL-12 was included. The detection limit of the IL-12 ELISA was 10 pg/ml, and that of the IL-10 ELISA was 15 pg/ml.

[2] = system: IL-10 production of LPS-activated monocytes; assay: Increase in IL-10 production of LPS-activated human monocytes (ELISA of culture supernatant); type: cell-based; details: 20 μg/ml LPS from E. coli, 24 hours
Procedure: as §1, §2, §3

Row | SMILES | Inhibition of IL-12 Production Maximum (%) [1] [%] | IC50 [1] [µg/mL] | Increase in IL-10 Production Maximum (%) [2] [%] | Inhibition of IL-12 Production IC50 [1] [µg/mL]
1 | Br.O=C1CCC(N2C=Nc3cc(Cl)ccc3C2)C(=O)N1 (stereo not drawn) [Example 1, 3-(7-chloro-4H-quinazolin-3-yl)piperidine-2,6-dione; hydrobromide] | 99 | 0.005 | 360 | 
2 | Br.O=C1CCC(N2C=Nc3ccccc3C2)C(=O)N1 (stereo not drawn) [Example 3, 3-(4H-quinazolin-3-yl)piperidine-2,6-dione; hydrobromide] | 98 | 0.01 | 230 | 
3 | O=C1CCC(N2C=Nc3cccc(Cl)c3C2)C(=O)N1 (stereo not drawn) [Example 7a, 3-(5-chloro-4H-quinazolin-3-yl)piperidine-2.6-dione] | 98 |  | 365 | 0.001
4 | Cl.O=C1CCC(N2C=Nc3cc(F)ccc3C2)C(=O)N1 (stereo not drawn) [Example 7f, 3-(7-fluoro-4H-quinazolin-3-yl)piperidine-2,6-dione; hydrochloride] | 98 | 0.0008 | 420 | 
5 | O=C1CCC(N2C=Nc3cccc(F)c3C2)C(=O)N1 (stereo not drawn) [Example 7h, 3-(5-fluoro-4H-quinazolin-3-yl)piperidine-2.6-dione] | 97 |  | 316 | 0.006
6 | O=C1CCC(N2C=Nc3cccc([N+](=O)[O-])c3C2)C(=O)N1 (stereo not drawn) [Example 7i, 3-(5-nitro-4H-ginazolin-3-yl)piperidine-2,6-dione] | 96 |  | 211 | 0.036
7 | Cc1cccc2c1CN(C1CCC(=O)NC1=O)C=N2 (stereo not drawn) [Example 7m, 3-(5-methyl-4H-quinazolin-3-yl)piperidine-2,6-dione] | 89 | 0.05 (≈ 0.194 µM) | 202 | 
8 | O=C1CCC(N2C=Nc3cc(F)c(F)cc3C2)C(=O)N1 (stereo not drawn) [Example 7n, 3-(6,7-difluoro-4H-quinazolin-3-yl)piperidine-2,6-dione] | 84 | 0.042 (≈ 0.15 µM) | 263 | 
9 | O=C1CCC(N2C(=O)c3ccccc3C2=O)C(=O)N1 (stereo not drawn) [Thalidomide, thalidomide, reference compound] | 80 | 0.1 (≈ 0.387 µM) | 180 | 
